Experimental data published in paper PMC12114683, “The Molecular Chaperone TCP1 Affects Carcinogenicity and Is a Potential Therapeutic Target for Acute Myeloid Leukemia” (Pharmaceutics, 2025).

Target: T1, TCP1 (Homo sapiens, UniProt P17987)
T1 construct: commercial recombinant TCP1 (Abnova), isolated subunit, amine-coupled to CM5 chip; PDB 4B2T was only the docking model
Assay: SPR (Biacore T200, CM5 chip, TCP1 amine-coupled)
Assay type: binding

T1 sequence (P17987 whole entry): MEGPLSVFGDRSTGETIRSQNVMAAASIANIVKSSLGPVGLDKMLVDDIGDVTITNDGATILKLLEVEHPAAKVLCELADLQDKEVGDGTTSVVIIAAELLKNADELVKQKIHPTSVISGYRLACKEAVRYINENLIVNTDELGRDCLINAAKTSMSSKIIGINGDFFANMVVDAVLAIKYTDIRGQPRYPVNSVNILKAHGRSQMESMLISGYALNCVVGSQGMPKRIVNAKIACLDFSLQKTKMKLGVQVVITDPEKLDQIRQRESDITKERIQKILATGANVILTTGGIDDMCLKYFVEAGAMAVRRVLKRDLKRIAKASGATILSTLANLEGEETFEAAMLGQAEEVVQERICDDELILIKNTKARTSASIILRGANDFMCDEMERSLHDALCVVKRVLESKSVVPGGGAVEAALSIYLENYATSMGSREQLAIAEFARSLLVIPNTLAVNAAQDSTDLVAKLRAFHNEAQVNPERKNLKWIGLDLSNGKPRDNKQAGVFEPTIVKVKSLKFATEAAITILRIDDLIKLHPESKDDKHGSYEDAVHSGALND

CCCCCCCCc1ccc(CCC(N)(CO)CO)cc1 [FTY720]
Kd: 6.77 nM
